# Where two headings read alike, the source gives them in different places.
# Experiments:
# [1] = system: human liver cancer HepG2 cells; details: Patent No. CN 104736157 A; cited from earlier work
# [2] = system: TE.354.T cells (human cutaneous basal cell carcinoma); test: cells; details: 72 h, read-out: half-maximal inhibitory concentration
# Experimental: The percent inhibition rate of each concentration group was calculated using the following formula: [Inhibition rate = (1 - T/C) × 100%], and the half-maximal inhibitory concentration (IC50) was calculated.
# COLO-16 cells [3] = test: cells; details: for IC50: test concentrations in ng/mL
# Experimental: (§1) The experimental procedures were as follows: The cells were subcultured in a complete medium containing 10% FBS in an incubator at 37 °C with 5% CO2 and saturated humidity. The cell density was adjusted to (3-5) × 10^4 cells/mL using a complete medium containing 10% FBS. The cell suspension was added to the wells of a 96-well culture plate at 100 µL/well, and the plate was incubated in an incubator at 37 °C with 5% CO2 and saturated humidity overnight (for about 16-24 hrs). Various dose groups of the test substance and a solvent control group were set. On the next day, the original culture medium was discarded. Subsequently, 20% FBS-containing complete medium was added at 100 µL/well, and the test substance or solvent in FBS-free medium was then added at 100 µL/well, resulting in a final FBS concentration of 10%. Meanwhile, a negative control group was set: each well received 100 µL of 20% FBS-containing complete medium + 100 µL of incomplete medium containing cells, resulting in a final FBS concentration of 10%. A zero adjustment group (background) was also set: 200 µL of the culture medium alone (100 µL of 20% FBS-containing complete medium + 100 µL of incomplete medium), without drugs and cells. For each concentration group, four replicate wells were set.
# After incubation for 48 hrs under the experimental conditions, the supernatant was discarded, and 110 µL of CCK-8 working solution (100 µL of 10% FBS-containing complete medium and 10 µL of CCK-8 solution) were added to each well. The cells were further incubated for 4 hrs, and the optical density value at a wavelength of 450 nm (A450) was then measured for each well using a microplate reader. The average value for the wells of each treatment group (T) was compared with the average value for the negative control wells (C). The percent inhibition rate of each concentration group was calculated using the following formula: [Inhibition rate = (1 - T/C) × 100%], and the half-maximal inhibitory concentration (IC50) was calculated.
# A431 cells = details: 48 hrs
# Experimental: as §1, with “Meanwhile, a negative control group was set: each well received 100 µL of 20% FBS-containing complete medium + 100 µL of incomplete medium containing cells, resulting in a final FBS concentration of 10%. A zero adjustment group (background) was also set: 200 µL of the culture medium alone (100 µL of 20% FBS-containing complete medium + 100 µL of incomplete medium), without drugs and cells. For each concentration group, four replicate wells were set.” left out
# (§2) After incubation for 48 hrs under the experimental conditions, the supernatant was discarded, and 110 µL of CCK-8 working solution (100 µL of 10% FBS-containing complete medium and 10 µL of CCK-8 solution) were added to each well. The cells were further incubated for 4 hrs, and the optical density value at a wavelength of 450 nm (A450) was then measured for each well using a microplate reader. […]
# SCL-1 cells = details: 48 hrs
# Experimental: as §1, with “Meanwhile, a negative control group was set: each well received 100 µL of 20% FBS-containing complete medium + 100 µL of incomplete medium containing cells, resulting in a final FBS concentration of 10%. A zero adjustment group (background) was also set: 200 µL of the culture medium alone (100 µL of 20% FBS-containing complete medium + 100 µL of incomplete medium), without drugs and cells. For each concentration group, four replicate wells were set.” left out
# as §2
# [4] = 20 °C
# [5] = for plasma drug concentrations above the LLOQ: topical gel 0.008-0.06 mg/cm^2, LLOQ 0.02 ng/mL
# [6] = not given; remark: listed apart in the source
# COLO-16 cells [7] = details: drug substance 0.8 mg/kg; intragastric administration, once every other day; after 21 days of treatment
smiles,measurement,setting,value
CO[C@H]1[C@H](O)[C@H](O[C@H]2CC[C@@]3(C)[C@H](CC[C@@H]4[C@@H]3CC[C@]3(C)[C@@H](C5=CC(=O)OC5)CC[C@]43O)C2)O[C@@H](C)[C@@H]1O [17β-neriifolin],cell cycle arrest and apoptosis,[1],induce cell cycle arrest and apoptosis
same,IC50,[2],~0.01 mg/L
same,Inhibition rate%,"COLO-16 cells [3]; 2.5 ng/mL, 48 hrs",6.9%
same,Inhibition rate%,"COLO-16 cells [3]; 25 ng/mL, 48 hrs",72.7%
same,Inhibition rate%,"COLO-16 cells [3]; 50 ng/mL, 48 hrs",77.9%
same,Inhibition rate%,"COLO-16 cells [3]; 100 ng/mL, 48 hrs",89.5%
same,IC50,COLO-16 cells [3]; 48 hrs,12.28
same,inhibition at 0.0025 µg/mL,"COLO-16 cells [3]; Homo sapiens, 48 h, read-out: Inhibition rate%, 2.5 ng/mL",9%
same,inhibition at 0.025 µg/mL,"COLO-16 cells [3]; Homo sapiens, 48 h, read-out: Inhibition rate%, 25 ng/mL",57.3%
same,inhibition at 0.05 µg/mL,"COLO-16 cells [3]; Homo sapiens, 48 h, read-out: Inhibition rate%, 50 ng/mL",74.5%
same,inhibition at 0.1 µg/mL,"COLO-16 cells [3]; Homo sapiens, 48 h, read-out: Inhibition rate%, 100 ng/mL",85.3%
same,IC50,"COLO-16 cells [3]; Homo sapiens, 48 h",0.0186 mg/L
same,Saturation solubility,10% ethanol,0.16 mg/mL
same,Saturation solubility,10% propylene glycol,0.08 mg/mL
same,Saturation solubility,20% ethanol,0.38 mg/mL
same,Saturation solubility,20% propylene glycol,0.10 mg/mL
same,Saturation solubility,30% ethanol,0.91 mg/mL
same,Saturation solubility,30% propylene glycol,0.42 mg/mL
same,Saturation solubility,40% ethanol,2.17 mg/mL
same,Saturation solubility,40% propylene glycol,0.75 mg/mL
same,growth inhibitory effects,A431 cells,strong growth inhibitory effects
same,growth inhibitory effects,SCL-1 cells,strong growth inhibitory effects
same,Dissolution behavior,"[4]; Ethanol concentration 20%, sample concentration 8 mg/g",Dissolved
same,Dissolution behavior,"[4]; Ethanol concentration 45%, sample concentration 20 mg/g",Dissolved
same,Dissolution behavior,"[4]; Ethanol concentration 50%, sample concentration 24 mg/g",Dissolved
same,Dissolution behavior,"[4]; Ethanol concentration 66%, sample concentration 32 mg/g",Dissolved
same,Dissolution behavior,"[4]; Ethanol concentration 75%, sample concentration 40 mg/g",Dissolved
same,Dissolution behavior,"[4]; Ethanol concentration 100%, sample concentration 50 mg/g",Dissolved
same,plasma drug concentrations above the LLOQ,[5]; four Australian subjects,0.021 to 0.101 ng/mL
same,plasma drug concentrations above the LLOQ,[5]; seven Chinese subjects,0.022 to 0.106 ng/mL
same,dose dependence of systemic exposure,"[5]; topical gel, 0.008-0.06 mg/cm^2 dose range",No dose-dependent increase
same,solubility,[6],~0.07 mg/mL
same,tumor inhibition rate,COLO-16 cells [7],greater than 80%
